Data on 5 molecules can be found in article PMC6075749 (PLoS ONE, 2018).

Where “and” joins values, the source holds several entries; their conditions need not be identical. Identical values can stand only once. Entries after “also recorded” stand apart in the source; their conditions may differ. Like-named read-outs stand apart in the source and are kept apart here.

Data set [1] concerns the target T1, recombinant human MMP-14 catalytic domain (Homo sapiens, UniProt P50281).
T1 construct: recombinant MMP-14 (catalytic domain) were from Calbiochem; purchased Calbiochem (San Diego, CA, USA)
Briefly: Initial rate fluorescence assay, MMP-14 catalytic domain, substrate Mca-PLGLDpaAR-NH2 (Km, Ki). It is filed as biochemical. On the procedure:
(§1) To determine the kinetic and inhibitor kinetic coefficients Km, and Ki, initial rate experiments were performed using a Perkin Elmer LS 50 Luminescence spectrometer and the FL WinLab Software Package (Perkin Elmer). The reactions were followed for one minute and during that time 600 data points were collected. The excitation and emission wavelengths for the two fluorescence quenched MMP peptide substrates, McaPLGLDpaAR-NH2 and Mca-[…](Dpn)-OH were; λex = 320 nm, λem = 405 nm and a slit width = 10 nm at both wavelengths. All assays were performed at 37°C in an assay buffer of 0.1 M Hepes pH 7.5, 0.005% Brij-35, 10 mM CaCl2 and a total assay volume of 100 μl.
(§2) The Km value was calculated from non-linear regression of the Michaelis-Menten equation using the Enzyme kinetic module in GraphPad Prism 5.
(§3) A fixed substrate concentration of 5.0 μM and / or 10 μM and a fixed enzyme concentration along with varying concentrations of potential inhibitor were used to determine the inhibitory capacity of the two compounds. […] For a competitive inhibitor, the IC50 value equals Ki(1+[S]/Km). For tight binding competitive inhibitors (Ki ≤ [E]), the values of Ki and [E] were obtained by both a dose response plot (vi/v0 against [I]) using the Morrison equation [71] (2) and through the linear Henderson Plot (Eq 3). For tight binding inhibitors, the enzyme was pre-incubated for 15 min at 37°C in the presence of inhibitor and the reaction was started by the addition of substrate. Graph Pad Prism 5 was used to calculate Ki and [E] values.

The target in data set [2] is T2, auerolysin (Staphylococcus aureus, UniProt P81177).
T2 construct: purchased BioCentrum Ltd (Kraków, Poland)
Briefly: Initial rate fluorescence assay, auerolysin, substrate Mca-[…](Dnp)-OH (Km, Ki). In kind it is biochemical. On the procedure: as §1, §2, §3

Data set [3] relates to MMP-14 (catalytic domain). To be noted: cited from earlier work.
The subject of data set [4] is MMP-9. Conditions: cited from earlier work.
Data set [5] concerns the target T3, thermolysin (Bacillus thermoproteolyticus, UniProt P00800). Further details: purchased Calbiochem (San Diego, CA, USA); method as in Grobelny D et al. [58]. To be noted: ref Grobelny D et al. [58]; cited from earlier work.
Data set [6] addresses T4, pseudolysin (Pseudomonas aeruginosa, UniProt P14756). Further details: purchased Calbiochem (San Diego, CA, USA). Conditions: ref Grobelny D et al. [58]; cited from earlier work.
The target of data set [7] is T3, thermolysin. Nature of the data set: Initial rate fluorescence assay, thermolysin, substrate Mca-RPPGFSAFK(Dnp)-OH (Km, inhibition). To be noted: N.I. = no inhibition up to 100 μM of inhibitor. As for the experimental part:
as §1, §2
(§4) A fixed substrate concentration of 5.0 μM and / or 10 μM and a fixed enzyme concentration along with varying concentrations of potential inhibitor were used to determine the inhibitory capacity of the two compounds. […] For a competitive inhibitor, the IC50 value equals Ki(1+[S]/Km). For tight binding competitive inhibitors (Ki ≤ [E]), the values of Ki and [E] were obtained by both a dose response plot (vi/v0 against [I]) using the Morrison equation [71] […]
(§5) The IC50 values were determined from a dose response plot vi/v0 vs log [Inhibitor] as described previously.

The target in data set [8] is T4, pseudolysin. Briefly: Initial rate fluorescence assay, pseudolysin, substrate Mca-RPPGFSAFK(Dnp)-OH (Km, inhibition). Conditions: N.I. = no inhibition up to 100 μM of inhibitor. On the procedure:
as §1, §2, §4, §5

Data set [9] addresses four forms of activated MMP-9 (Homo sapiens, UniProt P14780). Nature of the data set: Ki across the four forms of activated MMP-9 (summary). Conditions: ratio of Ki values, compound 1b vs galardin. In kind it is biochemical. As for the experimental part:
as §1, §3

In data set [10] the test system is COc1ccc2c(CC(=O)N[C@@H](CCCNC(=N)N)C(=O)N3CCC[C@H]3C(=O)N3CCC[C@H]3C(=O)NCC(=O)N[C@@H](Cc3ccccc3)C(=O)N[C@@H](CO)C(=O)N[C@@H](C)C(=O)N[C@@H](Cc3ccccc3)C(=O)N[C@@H](CCCCNc3ccc([N+](=O)[O-])cc3[N+](=O)[O-])C(=O)O)cc(=O)oc2c1. Briefly: Initial rate fluorescence assay, auerolysin, substrate Mca-[…](Dnp)-OH (Km, Ki). It is filed as biochemical, staphylococcus aureus. To be noted: other: low precision; Km far above highest usable substrate concentration (10 μM); pH 7.5; 37.0 °C. On the procedure:
as §1, §2, §3

The test system is the same in data set [11]. Nature of the data set: purified protein, by the assay type. Conditions: pH 7.5, 37.0 °C.

T4 sequence (P14756 198-498): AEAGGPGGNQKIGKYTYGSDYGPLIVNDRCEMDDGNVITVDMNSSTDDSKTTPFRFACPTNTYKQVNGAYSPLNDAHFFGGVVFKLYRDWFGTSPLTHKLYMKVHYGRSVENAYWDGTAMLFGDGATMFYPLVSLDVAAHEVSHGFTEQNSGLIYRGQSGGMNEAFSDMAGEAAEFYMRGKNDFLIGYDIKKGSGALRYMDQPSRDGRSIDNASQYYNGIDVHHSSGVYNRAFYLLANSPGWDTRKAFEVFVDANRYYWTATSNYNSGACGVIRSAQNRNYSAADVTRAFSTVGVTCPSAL
T3 sequence (P00800 233-548): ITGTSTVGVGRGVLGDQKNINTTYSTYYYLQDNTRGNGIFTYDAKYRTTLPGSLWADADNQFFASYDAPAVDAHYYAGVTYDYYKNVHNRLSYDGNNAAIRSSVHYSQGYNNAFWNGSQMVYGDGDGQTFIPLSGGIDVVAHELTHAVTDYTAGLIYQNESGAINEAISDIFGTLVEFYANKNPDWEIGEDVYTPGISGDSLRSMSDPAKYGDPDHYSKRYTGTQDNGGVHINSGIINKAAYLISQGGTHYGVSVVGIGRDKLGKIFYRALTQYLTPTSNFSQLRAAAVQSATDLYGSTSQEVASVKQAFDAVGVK
T2 sequence (P81177 209-509): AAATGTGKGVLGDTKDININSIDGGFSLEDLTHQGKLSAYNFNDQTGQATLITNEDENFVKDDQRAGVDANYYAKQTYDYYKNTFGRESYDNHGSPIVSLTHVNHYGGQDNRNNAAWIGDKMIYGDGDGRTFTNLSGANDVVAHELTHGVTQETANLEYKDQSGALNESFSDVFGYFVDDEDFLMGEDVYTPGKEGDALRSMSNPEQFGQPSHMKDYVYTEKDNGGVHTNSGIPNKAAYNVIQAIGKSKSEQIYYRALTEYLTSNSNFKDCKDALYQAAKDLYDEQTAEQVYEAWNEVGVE
Sequence of four forms of activated MMP-9 (P14780 107-508 limits assumed): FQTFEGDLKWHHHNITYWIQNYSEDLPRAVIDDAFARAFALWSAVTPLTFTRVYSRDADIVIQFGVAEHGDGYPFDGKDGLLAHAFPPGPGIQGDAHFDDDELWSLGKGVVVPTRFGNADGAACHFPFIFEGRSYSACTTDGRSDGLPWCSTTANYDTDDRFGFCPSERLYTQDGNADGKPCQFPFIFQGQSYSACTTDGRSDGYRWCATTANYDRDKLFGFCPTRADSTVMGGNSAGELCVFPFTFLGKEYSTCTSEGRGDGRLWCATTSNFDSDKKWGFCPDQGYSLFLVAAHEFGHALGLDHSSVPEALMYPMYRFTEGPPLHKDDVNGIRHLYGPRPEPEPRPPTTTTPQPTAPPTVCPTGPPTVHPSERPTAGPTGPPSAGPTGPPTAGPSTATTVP

By IC50 is commonly meant the concentration that inhibits the measured activity by half. Turning to `CNC(=O)[C@H](Cc1c[nH]c2ccccc12)NC(=O)[C@@H](CC(=O)NO)CC(C)C` [Galardin], the Ki is 0.95 nM and 0.78 nM and 0.82 nM and 0.91 nM and 0.89 nM in [1] (Ki ± s.d. per experiment, [S] 5.0 μM, read-out: Ki, Morrison equation, individual experiment); 0.78 nM (2×) and 0.86 nM and 0.76 nM and 1.16 nM in data set [1] (Ki ± s.d. per experiment, [S] 5.0 or 10.0 μM, read-out: Ki, Henderson plot, individual experiment); 0.87 ± 0.07 nM in data set [1] (average ± S.E.M. of independent experiments, 37°C, pH 7.5, read-out: Ki, Henderson plot, average); 0.87 nM in data set [1] (average ± S.E.M. of independent experiments, read-out: Ki, Morrison equation, average); 500 ± 60 nM in data set [2] (Ki app from the slope of the Henderson plot, 3.6 nM enzyme, r2 = 0.84, N = 16); 450 ± 50 nM in data set [2] (Ki from Henderson plot, from Ki app, 3.6 nM enzyme). The Ki was 450 nM in data set [2] (Ki from IC50 (dose response plot, Eq (1))); 452 ± 35 nM in [2] (Ki, from dose response plot using Eq (1), one experiment); 20 nM in data set [5]; 20 nM in data set [6]. Also, the IC50 in data set [2] is 500 ± 40 nM; in data set [3], 13.4 nM; in data set [4], […]. Moreover, the “binding to auerolysin, times weaker than binding to thermolysin and pseudolysin” value in data set [2] (ratio of Ki values) is on record as “about 25 times”.

With `O=C(NO)[C@H]1[C@@H](O)[C@H](O)[C@H](O)CN1S(=O)(=O)c1ccc(Oc2ccccc2)cc1` [compound 1b], the Ki in data set [1] (Ki, Henderson plot, average, average ± S.E.M. of independent experiments, 37°C, pH 7.5) was 0.088 nM and 0.09 nM; in data set [1] (Ki, Henderson plot, individual experiment, Ki ± s.d. per experiment, [S] 5.0 or 10.0 μM), 0.074 nM and 0.128 nM and 0.081 nM and 0.07 nM and 0.08 nM; in data set [1] (Ki, Morrison equation, average, average ± S.E.M. of independent experiments), 0.16 ± 0.02 nM; in data set [1] (Ki, Morrison equation, individual experiment, Ki ± s.d. per experiment, [S] 5.0 μM), 0.16 nM (2×) and 0.21 nM; in [1] (read-out: Ki, Morrison equation, individual experiment) it was 0.1 ± 0.06 nM; in [4], 0.097 nM. Moreover, the “interaction with MMP-14, times stronger than galardin” value in data set [1] (ratio of Ki values, compound 1b vs galardin) worked out at 10 times. The “Inhibitory effect (Ki: N.I.)” value is “no inhibitory effect; also recorded: N.I.^c” in data set [2] (N.I. = no inhibition up to 100 μM of inhibitor); “no inhibitory effect and N.I” in data set [7]; “no inhibitory effect and N.I” in [8]. Also, the “interaction with MMP-9, times stronger than galardin” value in data set [9] is given as 5 to 10 times.

For orientation: Km means the concentration of substrate that gives half-maximal velocity. In the case of auerolysin (Staphylococcus aureus), the Km in [10] stood at 47 ± 41 µM.

For the molecule “pseudolysin (Pseudomonas aeruginosa PAO1)”, the Km in data set [11] (other: low precision, Km far above highest usable substrate concentration (10 μM)) came out at 24 ± 8 µM.

On to “thermolysin (Bacillus thermoproteolyticus)”, for which, in data set [11] (other: substrate 0.5 to 10.0 μM), the Km was 6 ± 1 µM.
